Data taken from patent publication US20110112149A1, “EPOTHILONE ANALOGUES, THEIR PHARMACEUTICAL COMPOSITIONS, THEIR USE AND THEIR PREPA RATIONS” (priority 2008, published 2011).
Where two headings read alike, the source gives them in different places.

Assays:
Assay type in all cases: cell-based
NCI-H460 (Lung Cancer) = assay: SRB cytotoxicity assay, NCI-H460; conditions: cells cultured 3 days with compound, read-out: Activity against cancer cell lines (IC50), NCI-H460 (Lung Cancer)
From the text: (§1) The compounds of the present invention can be screened by conventional assays known in the art. For example, cytotoxicity of the compound can be determined according to SRB assay described in Skehan et. al., J. Natl. Cancer Inst. 1990, 82: 1107, which is incorporated herein by reference.
(§2) In the study, sulforhodamine B (SRB) was used for screening the selective compounds of the present invention according to their anti-tumor activity on four different tumor cell lines. In SRB assay, the cultured cells were trypsinized, then counted and diluted to a suitable concentration (5000-7500 cells/100 μl) with a culture medium. The cells were inoculated into a 96-well microtiter plate at 100 μl suspension/well. The test compounds were diluted in the culture medium to 2×1000 nM˜2×0.001 nM, and added to each well in 100 μl after 20 hours. The cells were then cultured for 3 days, fixed with 100 μl 10% trichloroacetic acid at 4° C. for 1 hour, and then stained with 0.2% SRB/1% acetic acid at room temperature for 20 min. The unbound dye was rinsed with 1% acetic acid. The bound dye was dissolved with 200 μl 10 mM Tris-base. The amount of the bound dye was calculated from OD value detected at wavelength of 515 nm. The amount of the bound dye was in direct proportion to the total amount of cell proteins. The data was analyzed with Kaleida Graph Program, and the half inhibitory concentration (IC50) was calculated. Epothilones D and B were detected in parallel for comparison. The results of the cytotoxic experiments on the tested selective compounds according to the present invention are shown as follows. The other compounds according to the present invention may also be detected with the similar method.

SF-268 (Glioma) = assay: SRB cytotoxicity assay, SF-268; conditions: cells cultured 3 days with compound, read-out: Activity against cancer cell lines (IC50), SF-268 (Glioma)
From the text: as §1, §2

MCF-7 (Breast Cancer) = assay: SRB cytotoxicity assay, MCF-7; conditions: cells cultured 3 days with compound, read-out: Activity against cancer cell lines (IC50), MCF-7 (Breast Cancer)
From the text: as §1, §2

[1] = test system: NCI/ADR-RES (MDR Breast Cancer); assay: SRB cytotoxicity assay, NCI/ADR-RES; conditions: cells cultured 3 days with compound, read-out: Activity against cancer cell lines (IC50), NCI/ADR-RES (MDR Breast Cancer)
From the text: as §1, §2

[2] = Homo sapiens, NCI/ADR-RES, 72 h

SMILES	IC50 (NCI-H460 (Lung Cancer)) [nM]	IC50 (SF-268 (Glioma)) [nM]	IC50 (MCF-7 (Breast Cancer)) [nM]	IC50 [1] [nM]	IC50 (NCI-H460 (Lung Cancer); Homo sapiens, NCI-H460, 72 h) [nM]	IC50 (SF-268 (Glioma); Homo sapiens, SF-268, 72 h) [nM]	IC50 (MCF-7 (Breast Cancer); Homo sapiens, MCF7, 72 h) [nM]	IC50 [1, 2] [nM]
C/C(=C\c1csc(C)n1)[C@@H]1C[C@@H]2O[C@]2(C)CCC[C@H](C)[C@H](O)[C@@H](C)C(=O)C(C)(C)[C@@H](O)CC(=O)O1 [Epo B, Epothilone B, reference compound]	0.7	0.8	0.5	5				
C/C1=C/C[C@@H](/C(C)=C/c2csc(C)n2)OC(=O)C[C@H](O)C(C)(C)C(=O)[C@H](C)[C@@H](O)[C@@H](C)CCC1 [Epo D, Epothilone D, reference compound]	17	18	13	42				
C/C(=C\c1csc(C)n1)C(N)C1OC(=O)CC(O)C(C)(C)C(=O)C(C)C(O)C(C)CCCC2(C)OC12 (centres unmarked) [HH3]					0.5	1	1	3
C/C(=C\c1csc(C)n1)C1OC(=O)CC(O)C(C)(C)C(=O)C(C)C(O)C(C)CCCC2(C)OC12 (centres unmarked) [HH6]					0.5	1	0.2	1
Cc1nc2cc(C3OC(=O)CC(O)C(C)(C)C(=O)C(C)C(O)C(C)CCCC4(C)OC34)ccc2s1 (centres unmarked) [HH8]					0.2	1	0.5	0.5
